Source: US20120201749A1, “NP-1 Antagonists and Their Therapeutic Use” (priority 2009, published 2012)

Molecular target: NP-1 (Homo sapiens, UniProt O14786)
Assay: Biotinylated-VEGF-A165 (bt-VEGF-A165) binding to NP-1
Conditions: for inhibition at 30 µM: read-out: Screen (% inhibition at 30 μM); for inhibition at 3 µM: read-out: Screen (% inhibition at 3 μM)
Description: Human prostate carcinoma DU145 cells were cultured in growth medium (RPMI 1640 containing 10% FBS and L-glutamine). DU145 cells were seeded at the density of 2×10^4 cells per well (96-well plates) in 0.1 ml growth medium and transfected with adenovirus vectors containing the full-length open-reading frame of human NP-1. The Ad.NP-1-transfected cells grew for 2 days prior to a binding assay.
Confluent Ad.NP-1-transfected cells in 96-well plates were washed twice with phosphate-buffered saline (PBS). The various concentrations of compounds diluted in binding medium (Dulbecco's modified Eagle's medium, 25 mM HEPES pH 7.3 containing 0.1% BSA) were added, followed by addition of 2 nM of bt-VEGF-A165. After 2 h of incubation at room temperature, the medium was aspirated and washed three times with PBS. The bound bt-VEGF-A165 to NP-1 was detected by streptavidin-horseradish peroxidase conjugates and the enzyme substrate, and measured using a Tecan Genios plate reader at A450 nm with a reference wavelength at A595 nm. Non-specific binding was determined in the presence of 100-fold excess unlabelled VEGF-A165.
The 96-well plates were pre-coated with NP1 protein at 3 μg/ml overnight at 4° C. On the following day, the plates were treated with blocking buffer (PBS containing 1% BSA) and washed three times with wash buffer (PBS containing 0.1% Tween-20). The various concentrations of compounds diluted in PBS containing 1% DMSO were added, followed by addition of 0.25 nM of bt-VEGF-A165. After 2 h of incubation at room temperature, the plates were washed three times with wash buffer. The bound bt-VEGF-A165 to NP-1 was detected by streptavidin-horseradish peroxidase conjugates and the enzyme substrate, and measured using a Tecan Genios plate reader at A450 nm with a reference wavelength at A595 nm. Nonspecific binding was determined in the absence of NP-1 coated wells of the plates.

Sequence of NP-1 (O14786 22-923): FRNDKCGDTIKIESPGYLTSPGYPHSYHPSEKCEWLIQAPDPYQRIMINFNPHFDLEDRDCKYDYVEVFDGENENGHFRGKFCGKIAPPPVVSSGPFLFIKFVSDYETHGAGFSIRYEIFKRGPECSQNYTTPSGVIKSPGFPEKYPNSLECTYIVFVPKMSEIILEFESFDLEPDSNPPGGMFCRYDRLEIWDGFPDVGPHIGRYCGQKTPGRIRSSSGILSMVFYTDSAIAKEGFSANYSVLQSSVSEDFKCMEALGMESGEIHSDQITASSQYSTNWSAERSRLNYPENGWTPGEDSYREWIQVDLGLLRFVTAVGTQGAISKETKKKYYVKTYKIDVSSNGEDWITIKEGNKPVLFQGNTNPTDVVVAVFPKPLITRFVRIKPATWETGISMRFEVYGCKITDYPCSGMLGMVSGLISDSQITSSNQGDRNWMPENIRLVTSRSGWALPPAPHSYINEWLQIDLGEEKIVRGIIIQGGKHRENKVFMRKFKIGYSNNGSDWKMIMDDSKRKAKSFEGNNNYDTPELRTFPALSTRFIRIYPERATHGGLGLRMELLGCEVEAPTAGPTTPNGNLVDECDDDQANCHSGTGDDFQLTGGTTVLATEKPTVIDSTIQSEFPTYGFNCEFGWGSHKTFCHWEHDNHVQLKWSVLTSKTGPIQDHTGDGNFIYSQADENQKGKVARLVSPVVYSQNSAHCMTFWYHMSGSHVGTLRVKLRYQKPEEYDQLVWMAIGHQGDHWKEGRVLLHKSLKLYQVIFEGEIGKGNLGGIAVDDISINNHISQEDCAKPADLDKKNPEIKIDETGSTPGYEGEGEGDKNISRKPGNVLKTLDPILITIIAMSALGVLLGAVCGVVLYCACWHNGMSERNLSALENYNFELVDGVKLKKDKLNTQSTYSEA

| SMILES | IC50 [nM] | inhibition at 30 µM (30 μM compound) [%] | inhibition at 3 µM (3 μM compound) [%] | Screen (% inhibition at 3 μM) (3 μM compound, 3 µM) [%] | Screen (% inhibition at 30 μM) (30 μM compound, 30 µM) [%] |
| --- | --- | --- | --- | --- | --- |
| N=C(N)NCCC[C@H](NC(=O)c1sccc1NS(=O)(=O)c1cc(-c2ccccc2CN2CCC(N3CCOCC3)CC2)cc2c1OCC2)C(=O)O [Compound 25, (S)-5-Guanidino-2-[(3-{5-[2-(4-morpholin-4-yl-piperidin-1-ylmethyl)-phenyl]-2,3-dihydro-benzofuran-7-sulfonylamino}-thiophene-2-carbonyl)-amino]-pentanoic acid] | 635 | 100 | 83 | – | – |
| COC(=O)CC1CCN(Cc2ccccc2-c2cc3c(c(S(=O)(=O)Nc4ccsc4C(=O)N[C@@H](CCCNC(=N)N)C(=O)O)c2)OCC3)CC1 [Compound 6, (S)-5-Guanidino-2-[(3-{5-[2-(4-methoxycarbonylmethyl-piperidin-1-ylmethyl)-phenyl]-2,3-dihydro-benzofuran-7-sulfonylamino}-thiophene-2-carbonyl)-amino]-pentanoic acid] | 3 | – | 95 | – | – |
| N=C(N)NCCC[C@H](NC(=O)c1sccc1NS(=O)(=O)c1cc(-c2ccccc2CN2CCNCC2)cc2c1OCC2)C(=O)O [Compound 20, (S)-5-Guanidino-2-({3-[5-(2-piperazin-1-ylmethyl-phenyl)-2,3-dihydro-benzofuran-7-sulfonylamino]-thiophene-2-carbonyl}-amino)-pentanoic acid] | 2000 | 100 | 82 | – | – |
| N=C(N)NCCC[C@H](NC(=O)c1sccc1NS(=O)(=O)c1cc(-c2ccccc2CNCc2ccccn2)cc2c1OCC2)C(=O)O [Compound 18, (S)-5-Guanidino-2-({3-[5-(2-{[(pyridin-2-ylmethyl)-amino]-methyl}-phenyl)-2,3-dihydro-benzofuran-7-sulfonylamino]-thiophene-2-carbonyl}-amino)-pentanoic acid] | – | 100 | 70 | – | – |
| N=C(N)NCCC[C@H](NC(=O)c1sccc1NS(=O)(=O)c1cccc(NCc2csc(N3CCN(c4cccnc4)CC3)n2)c1)C(=O)O [Compound 62, (S)-5-guanidino-2-{[3-(3-{[2-(4-pyridin-3-yl-piperazin-1-yl)-thiazol-4-ylmethyl]-amino}-benzenesulfonylamino)-thiophene-2-carbonyl]-amino}-pentanoic acid] | – | 95 | 68 | – | – |
| N=C(N)NCCC[C@H](NC(=O)c1sccc1NS(=O)(=O)c1cc(-c2ccccc2CN2CCN(Cc3ccccn3)CC2)cc2c1OCC2)C(=O)O [Compound 16, (S)-5-Guanidino-2-[(3-{5-[2-(4-pyridin-2-ylmethyl-piperazin-1-ylmethyl)-phenyl]-2,3-dihydro-benzofuran-7-sulfonylamino}-thiophene-2-carbonyl)-amino]-pentanoic acid] | – | 95 | 64 | – | – |
| N=C(N)NCCC[C@H](NC(=O)c1sccc1NS(=O)(=O)c1cc(-c2cccc(CN3CCC(N4CCOCC4)CC3)c2)cc2c1OCC2)C(=O)O [Compound 38, (S)-5-Guanidino-2-[(3-{5-[3-(4-morpholin-4-yl-piperidin-1-ylmethyl)-phenyl]-2,3-dihydro-benzofuran-7-sulfonylamino}-thiophene-2-carbonyl)-amino]-pentanoic acid] | 295 | – | – | 68 | 93 |
| N=C(N)NCCC[C@H](NC(=O)c1sccc1NS(=O)(=O)c1cccc(NCc2csc(N3CCOCC3)n2)c1)C(=O)O [Compound 71, (S)-5-guanidino-2-[(3-{3-[(2-morpholin-4-yl-thiazol-4-ylmethyl)-amino]-benzenesulfonylamino}-thiophene-2-carbonyl]-amino]-pentanoic acid] | – | 91 | 53 | – | – |
| N=C(N)NCCC[C@H](NC(=O)c1sccc1NS(=O)(=O)c1cc(-c2ccccc2CN2CCC(C(=O)O)CC2)cc2c1OCC2)C(=O)O [Compound 1, 1-(2-{7-[2-((S)-1-Carboxy-4-guanidino-butylcarbonyl)-thiophen-3-ylsulfamoyl]-2,3-dihydro-benzofuran-5-yl}-benzyl)-piperidine-4-carboxylic acid] | 7 | – | 100 | – | – |
| N=C(N)NCCC[C@H](NC(=O)c1sccc1NS(=O)(=O)c1cccc(NCc2csc(N3CCN(c4ccccn4)CC3)n2)c1)C(=O)O [Compound 63, (S)-5-guanidino-2-{[3-(3-{[2-(4-pyridin-2-yl-piperazin-1-yl)-thiazol-4-ylmethyl]-amino}-benzenesulfonylamino)-thiophene-2-carbonyl]-amino}-pentanoic acid] | – | 83 | 49 | – | – |
| COc1ccccc1-c1nc(CNc2cccc(S(=O)(=O)Nc3ccsc3C(=O)N[C@@H](CCCNC(=N)N)C(=O)O)c2)no1 [Compound 69, (S)-5-Guanidino-2-{[3-(3-{[5-(2-methyoxy-phenyl)-[1,2,4]oxadiazol-3-ylmethyl]-amino}-benzenesulfonylamino)-thiophene-2-carbonyl]-amino}-pentanoic acid] | – | 79 | 37 | – | – |

Next, values leading:

| IC50 [nM] | inhibition at 30 µM (30 μM compound) [%] | inhibition at 3 µM (3 μM compound) [%] | Screen (% inhibition at 3 μM) (3 μM compound, 3 µM) [%] | Screen (% inhibition at 30 μM) (30 μM compound, 30 µM) [%] | SMILES |
| --- | --- | --- | --- | --- | --- |
| 1200 | 96 | – | – | – | N=C(N)NCCC[C@H](NC(=O)c1sccc1NS(=O)(=O)c1cc(-c2cccc(CNCc3cccnc3)c2)cc2c1OCC2)C(=O)O [Compound 12, (S)-5-Guanidino-2-({3-[5-(3-{[(pyridin-3-ylmethyl)-amino]-methyl}-phenyl)-2,3-dihydro-benzofuran-7-sulfonyl-amino]-thiophene-2-carbonyl}-amino)-pentanoic acid] |
| – | – | 82 | – | – | N=C(N)NCCC[C@H](NC(=O)c1sccc1NS(=O)(=O)c1cc(-c2cccc(CNCc3ccc(O)nc3)c2)cc2c1OCC2)C(=O)O [Compound 43, (S)-5-Guanidino-2-({3-[5-(3-{[(6-hydroxy-pyridin-3-ylmethyl)-amino]-methyl}-phenyl)-2,3-dihydro-benzofuran-7-sulfonylamino]-thiophene-2-carbonyl}-amino)-pentanoic acid] |
| 365 | 100 | 81 | – | – | N=C(N)NCCC[C@H](NC(=O)c1sccc1NS(=O)(=O)c1cc(-c2cccc(CN3CCNCC3)c2)cc2c1OCC2)C(=O)O [Compound 33, (S)-5-Guanidino-2-({3-[5-(3-piperazin-1-ylmethyl-phenyl)-2,3-dihydro-benzofuran-7-sulfonylamino]-thiophene-2-carbonyl}-amino)-pentanoic acid] |
| – | – | 78 | – | – | Cc1ccc(NCCCNCc2cccc(-c3cc4c(c(S(=O)(=O)Nc5ccsc5C(=O)N[C@@H](CCCNC(=N)N)C(=O)O)c3)OCC4)c2)nc1 [Compound 44, (S)-5-Guanidino-2-({3-[5-(3-{[3-(5-methyl-pyridin-2-ylamino)-propylamino]-methyl}-phenyl)-2,3-dihydro-benzofuran-7-sulfonylamino]-thiophene-2-carbonyl}-amino)-pentanoic acid] |
| – | – | 52 | – | – | Cc1[nH]ncc1CCCNCc1cccc(-c2cc3c(c(S(=O)(=O)Nc4ccsc4C(=O)N[C@@H](CCCNC(=N)N)C(=O)O)c2)OCC3)c1 [Compound 41, (S)-5-Guanidino-2-({3-[5-(3-{[3-(5-methyl-1H-pyrazol-4-yl)-propylamino]-methyl}-phenyl)-2,3-dihydro-benzofuran-7-sulfonylamino]-thiophene-2-carbonyl}-amino)-pentanoic acid] |
| 740 | – | 94 | – | – | N=C(N)NCCC[C@H](NC(=O)c1sccc1NS(=O)(=O)c1cc(-c2cccc(CNCc3cn[nH]c3)c2)cc2c1OCC2)C(=O)O [Compound 51, (S)-5-Guanidino-2-({3-[5-(3-{[(1H-pyrazol-4-ylmethyl)-amino]-methyl}-phenyl)-2,3-dihydro-benzofuran-7-sulfonylamino]-thiophene-2-carbonyl}-amino)-pentanoic acid] |
| – | 100 | 55 | – | – | Cc1cc(CNCc2ccccc2-c2cc3c(c(S(=O)(=O)Nc4ccsc4C(=O)N[C@@H](CCCNC(=N)N)C(=O)O)c2)OCC3)no1 [Compound 26, (S)-5-Guanidino-2-({3-[5-(2-{[(5-methyl-isoxazol-3-ylmethyl)-amino]-methyl}-phenyl)-2,3-dihydro-benzofuran-7-sulfonylamino]-thiophene-2-carbonyl}-amino)-pentanoic acid] |
| 637 | 90 | 68 | – | – | N=C(N)NCCC[C@H](NC(=O)c1sccc1NS(=O)(=O)c1cc(-c2cccc(CNCc3ncc[nH]3)c2)cc2c1OCC2)C(=O)O [Compound 37] |
| – | 94 | 50 | – | – | N=C(N)NCCC[C@H](NC(=O)c1sccc1NS(=O)(=O)c1cc(-c2cccc(CN3CCC(N)CC3)c2)cc2c1OCC2)C(=O)O [Compound 34, (S)-2-[(3-{5-[3-(4-Amino-piperidin-1-ylmethyl)-phenyl]-2,3-dihydro-benzofuran-7-sulfonylamino}-thiophene-2-carbonyl)-amino]-5-guanidino-pentanoic acid] |
